Earlier results, collected in patent US9655905B2, “Treatment of sickle cell disease” (KING ABDULLAH UNIVERSITY OF SCIENCE AND TECHNOLOGY, priority 2011, dated 2017).

Legend:
[1] = test system: (G) gamma-globin promoter
GM-CSF = test system: GM-CSF; design: key to Effect on GM-CSF: increases protein levels; decrease: reduces protein levels; exert no effect on protein levels; not known: has not been experimentally determined
TNFα = conditions: for Effect on TNFα: Table 6, cytokine/inflammatory, up in SCD; for levels of TNF-α: cited literature
ET-3 = test system: ET-3; design: key to Effect on ET-3: increases protein levels; decrease: reduces protein levels; exert no effect on protein levels; not known: has not been experimentally determined
IL-10 = conditions: for Effect on IL-10: Table 6, anti-inflammatory; for levels of anti-inflammatory mediator IL-10: cited literature
ICAM-1 = conditions: for Effect on ICAM-1: Table 6, adhesion, up in SCD
NFkB = conditions: for Effect on NFkB: Table 6, activator of endothelial cells, up in SCD
ET-1 = conditions: for Effect on ET-1: Table 6, vasoconstrictor, up in SCD; for levels of vasoconstrictor ET-1: cited literature
IL-3 = test system: IL-3; design: key: increases protein levels; decrease: reduces protein levels; exert no effect on protein levels; not known: has not been experimentally determined; conditions: Table 6; inflammatory, up in SCD
SELP = conditions: for Effect on SELP: Table 6, adhesion, up in SCD
IL-8 = test system: IL-8; design: key to Effect on IL-8: increases protein levels; decrease: reduces protein levels; exert no effect on protein levels; not known: has not been experimentally determined
[2] = test system: erythrocyte-endothelial adhesion; conditions: HU therapy (Gambero, et al 2007)
SELE = conditions: for Effect on SELE: Table 6, adhesion, up in SCD
IL-1β = conditions: for Effect on IL-1β: Table 6, cytokine/inflammatory, up in SCD
fetal hemoglobin (HbF) = conditions: via NO-cGMP signaling pathway (Cokic, et al 2003)
eNOS = conditions: for Effect on eNOS: Table 6, inhibitor of endothelial cell activation, down in SCD
NO = conditions: for Effect on NO: Table 6, vasodilator, down in SCD
CD36 = test system: CD36; design: key to Effect on CD36: increases protein levels; decrease: reduces protein levels; exert no effect on protein levels; not known: has not been experimentally determined
FN1 = conditions: for Effect on FN1: Table 6, coagulatory, up in SCD
IL-6 = conditions: for Effect on IL-6: Table 6, chemokine/inflammatory, up in SCD
VLA-4 = test system: VLA-4; design: key to Effect on VLA-4: increases protein levels; decrease: reduces protein levels; exert no effect on protein levels; not known: has not been experimentally determined
VCAM-1 = test system: VCAM-1; design: key to Effect on VCAM-1: increases protein levels; decrease: reduces protein levels; exert no effect on protein levels; not known: has not been experimentally determined
[3] = test system: leukocyte-endothelial adhesion; conditions: colonic UR injury (Santen, et al 2010)
cGMP = conditions: Dai, et al 2011
[4] = HU in SCD, endothelial adhesion molecule
[5] = on the surface of erythrocytes, HU therapy
[6] = Table 6, activator of endothelial cells, up in SCD
[7] = colonic UR injury (Santen, et al 2010)

C=C1CC[C@H]2C(C)(C)CCC[C@]2(C)[C@H]1C/C=C1/C(=O)OC[C@@H]1O [Isocoronarin D]
production of HbF [1]: induces
EGFP inducing potency or HbF production ([1]; rank among seven diterpenes (Chokchaisiri, et al 2010)): highest
cell viability (K562 reporter cell line): 75-80%
toxicity associated with HbF induction (K562 reporter cell line): little to no

NC(=O)NO [HU, Hydroxyurea]
levels of GM-CSF (GM-CSF; HU therapy (Conran, et al 2007)): decreased
Effect on GM-CSF (GM-CSF; Table 6, inflammatory, up in SCD): decrease
Effect on TNFα (TNFα): decrease
levels of TNF-α (TNFα): decreased
levels of vasoconstrictor ET-3 (ET-3; HU in SCD (Makis, et al 2004)): decreasing
Effect on ET-3 (ET-3; Table 6, vasoconstrictor, up in SCD): decrease
Effect on IL-10 (IL-10): increase
levels of anti-inflammatory mediator IL-10 (IL-10): increase
levels of sICAM-1 (ICAM-1; [4]): decreasing
Effect on ICAM-1 (ICAM-1): decrease
Effect on NFkB (NFkB): decrease
Effect on ET-1 (ET-1): decrease
levels of vasoconstrictor ET-1 (ET-1): decreasing
Effect on IL-3 (IL-3): increase
levels of sSELP (SELP; [4]): decreasing
Effect on SELP (SELP): decrease
expression of IL-8 (IL-8; HU (Laurance, et al 2010)): increases
levels of IL-8 (IL-8; HU therapy (Lanaro, et al 2009)): no effect
Effect on IL-8 (IL-8; Table 6, chemokine/inflammatory, up in SCD): increase
erythrocyte-endothelial adhesion [2]: reduce
levels of sSELE (SELE; [4]): decreasing
Effect on SELE (SELE): decrease
Effect on IL-1β (IL-1β): increase
production of fetal hemoglobin (HbF)-containing erythrocytes (fetal hemoglobin (HbF)): increasing
Effect on eNOS (eNOS): increase
NO bioavailability (NO; HU treatment of SCD (Conran, et al 2004)): increased
Effect on NO (NO): increase
Effect on CD36 (CD36; Table 6, adhesion, up in SCD): decrease
gene and protein expression of CD36 (CD36; [5]): reducing
levels of the pro-coagulatory molecule fibronectin (FN1; HU (Saleh, et al 1999)): no demonstrable effects
Effect on FN1 (FN1): no effect
expression of IL-6 (IL-6; HU (Laurance, et al 2010)): increases
Effect on IL-6 (IL-6): increase
Effect on VLA-4 (VLA-4; Table 6, adhesion, up in SCD): decrease
gene and protein expression of VLA-4 (VLA-4; [5]): reducing
levels of sVCAM-1 (VCAM-1; [4]): decreasing
Effect on VCAM-1 (VCAM-1; Table 6, adhesion, up in SCD): decrease

O=S(=O)(c1cccc2c(O)nccc12)N1CCCNCC1 [Hydroxyfasudil, 5-(1,4-diazepane-1-sulfonyl)isoquinolin-1-ol]
Effect on TNFα (TNFα): decrease
levels of TNF-α (TNFα): decrease
TF (TF; Satoh, et al 2010): reduce
Effect on TF (TF; [6]): decrease
Effect on HIF-1 (HIF-1; [6]): decrease
HIF-1α (HIF-1; Takata, et al 2008): reduce
Effect on IL-10 (IL-10): increase
levels of anti-inflammatory mediator IL-10 (IL-10): increase
Effect on ICAM-1 (ICAM-1): decrease
ICAM-1 (ICAM-1; [7]): reduce
ICAM-1 expression (ICAM-1; diabetes-induced microvascular damage (Arita, et al 2009)): reduce
NFκB (NFkB; He, et al 2008): reduce
Effect on NFkB (NFkB): decrease
Effect on ROS (ROS; Table 6, IR injury-related molecule, up in SCD): decrease
injury-induced generation of ROS (ROS; UR injury (Shiotani, et al 2004)): suppress
Effect on ET-1 (ET-1): decrease
levels of vasoconstrictor ET-1 (ET-1): suppress
Effect on SELP (SELP): decrease
SELP (SELP; [7]): reduce
Effect on SELE (SELE): decrease
SELE (SELE; [7]): reduce
leukocyte-endothelial adhesion [3]: diminishing
IL-1β (IL-1β; He, et al 2008): decrease
Effect on IL-1β (IL-1β): decrease
levels of eNOS (eNOS; Dai, et al 2011): increased
Effect on eNOS (eNOS): increase
levels of NO (NO; Dai, et al 2011): increased
Effect on NO (NO): increase
Effect on FN1 (FN1): decrease
Effect on IL-6 (IL-6): decrease
IL-6 levels (IL-6; after hypoxia/reoxygenation injury in brain tissue (Ding, et al 2010)): reduce
levels of cGMP (cGMP): increased
